Experimental data reported in ChEMBL document CHEMBL4507327 (2021).

Experiments:
Activin receptor type-1 = Activin receptor type-1 (Homo sapiens, UniProt Q04771); experiment: ALK2(ACV1LGF1) Takeda global kinase panel
[1] = molecular target: Tyrosine-protein kinase ABL1 (Homo sapiens, UniProt P00519); experiment: Abl(ABL1IHY1) Takeda global kinase panel
[2] = molecular target: Serine/threonine-protein kinase PINK1, mitochondrial (Homo sapiens, UniProt Q9BXM7); experiment: PINK1(PIN1PHRE) Takeda global kinase panel
[3] = molecular target: Serine/threonine-protein kinase TNNI3K (Homo sapiens, UniProt Q59H18); experiment: HH498(TNNILGY1) Takeda global kinase panel
Ephrin type-A receptor 3 = Ephrin type-A receptor 3 (Homo sapiens, UniProt P29320); experiment: EphA3(EPA3LGD5) Takeda global kinase panel
[4] = molecular target: Bone morphogenetic protein receptor type-1A (Homo sapiens, UniProt P36894); experiment: BMPR1A(BM1APHRG) Takeda global kinase panel
[5] = molecular target: Mitogen-activated protein kinase kinase kinase kinase 5 (Homo sapiens, UniProt Q9Y4K4); experiment: KHS1(M4K5LGY1) Takeda global kinase panel
[6] = molecular target: Protein kinase C theta type (Homo sapiens, UniProt Q04759); experiment: PKCtheta(PRKQLGM5) Takeda global kinase panel
[7] = molecular target: Dual specificity tyrosine-phosphorylation-regulated kinase 1B (Homo sapiens, UniProt Q9Y463); experiment: DYRK1B(DY1BLHY1) Takeda global kinase panel
[8] = molecular target: T1, Muscarinic acetylcholine receptor M1 (Homo sapiens) (UniProt P11229); conditions: Compound concentration 10.0 uM
T1 sequence (whole entry): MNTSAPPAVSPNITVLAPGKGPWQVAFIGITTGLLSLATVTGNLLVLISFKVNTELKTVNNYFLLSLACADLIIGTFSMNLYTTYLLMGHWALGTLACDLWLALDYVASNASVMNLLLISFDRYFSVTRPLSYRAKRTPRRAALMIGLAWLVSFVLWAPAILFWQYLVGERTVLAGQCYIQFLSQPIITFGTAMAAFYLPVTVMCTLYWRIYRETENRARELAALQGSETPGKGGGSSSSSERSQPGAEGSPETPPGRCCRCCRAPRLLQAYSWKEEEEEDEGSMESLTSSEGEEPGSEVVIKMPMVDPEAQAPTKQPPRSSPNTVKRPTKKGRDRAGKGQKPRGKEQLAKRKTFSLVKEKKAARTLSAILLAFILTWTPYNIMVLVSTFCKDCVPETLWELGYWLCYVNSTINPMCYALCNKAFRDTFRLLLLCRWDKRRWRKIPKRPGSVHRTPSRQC

[9] = molecular target: Mitogen-activated protein kinase kinase kinase 20 (Homo sapiens, UniProt Q9NYL2); experiment: ZAK(ZAK1LGY1) Takeda global kinase panel
[10] = molecular target: Serine/threonine-protein kinase MRCK alpha (Homo sapiens, UniProt Q5VT25); experiment: MRCKalpha(CD4ALGY1) Takeda global kinase panel
[11] = molecular target: Mitogen-activated protein kinase 13 (Homo sapiens, UniProt O15264); experiment: p38delta(MP13LGP1) Takeda global kinase panel
[12] = molecular target: Glutamate receptor ionotropic, kainate (Rattus norvegicus) (UniProt P22756+Q01812+P42260+P42264+Q63273); conditions: Compound concentration 10.0 uM
[13] = molecular target: D(2) dopamine receptor (Homo sapiens) (UniProt P14416); conditions: Compound concentration 10.0 uM
[14] = molecular target: RAC-gamma serine/threonine-protein kinase (Homo sapiens, UniProt Q9Y243); experiment: Akt3 [PKBgamma(AKT3LGY1)] Takeda global kinase panel
[15] = molecular target: Cell division cycle 7-related protein kinase (Homo sapiens, UniProt O00311); experiment: CDC7(CDC7CGP1) Takeda global kinase panel
[16] = molecular target: Vascular endothelial growth factor receptor 3 (Homo sapiens, UniProt P35916); experiment: FLT4(FLT4LGY1) Takeda global kinase panel
[17] = molecular target: Serine/threonine-protein kinase MARK1 (Homo sapiens, UniProt Q9P0L2); experiment: MARK1(MAR1PHY1) Takeda global kinase panel
[18] = molecular target: Mitogen-activated protein kinase kinase kinase 7 (Homo sapiens, UniProt O43318); experiment: TAK1(M3K7CHY1) Takeda global kinase panel
[19] = molecular target: Serine/threonine-protein kinase SIK2 (Homo sapiens, UniProt Q9H0K1); experiment: QIK(SIK2LGY1) Takeda global kinase panel
[20] = molecular target: Mitogen-activated protein kinase 8 (Homo sapiens, UniProt P45983); experiment: JNK1(MAP8LGF1) Takeda global kinase panel
Rattus norvegicus = organism: Rattus norvegicus; experiment: Inhibition of Glutamate, NMDA, Phencyclidine at 10 µM in the Eurofins-Panlabs radioligand binding assay (Eurofins_assay_233000); format: protein-complex assay; conditions: Compound concentration 10.0 uM
[21] = molecular target: Ribosomal protein S6 kinase alpha-2 (Homo sapiens, UniProt Q15349); experiment: RSK3(R6A1CGE1) Takeda global kinase panel
[22] = molecular target: Protein kinase C zeta type (Homo sapiens, UniProt Q05513); experiment: PKCzeta(PRKZLGP1) Takeda global kinase panel
[23] = molecular target: Platelet-activating factor receptor (Homo sapiens) (UniProt P25105); experiment: Platelet Activating Factor (PAF) Eurofins-Panlabs radioligand binding assay; set-up: ligand concentration 1 nM; conditions: Compound concentration 10.0 uM
[24] = molecular target: Tyrosine-protein kinase receptor UFO (Homo sapiens, UniProt P30530); experiment: Axl(AXL1LGY1) Takeda global kinase panel
[25] = molecular target: Histamine H2 receptor (Homo sapiens) (UniProt P25021); conditions: Compound concentration 10.0 uM
[26] = molecular target: Tyrosine-protein kinase Mer (Homo sapiens, UniProt Q12866); experiment: Mer(MERTLGF1) Takeda global kinase panel
[27] = molecular target: Mitogen-activated protein kinase kinase kinase kinase 1 (Homo sapiens, UniProt Q92918); experiment: HPK1(M4K1LGY1) Takeda global kinase panel
Ephrin type-B receptor 2 = Ephrin type-B receptor 2 (Homo sapiens, UniProt P29323); experiment: EphB2(EPB2LGY1) Takeda global kinase panel
[28] = molecular target: Eukaryotic translation initiation factor 2-alpha kinase 1 (Homo sapiens, UniProt Q9BQI3); experiment: HRI(EIK1CGQ1) Takeda global kinase panel
[29] = molecular target: Wee1-like protein kinase 2 (Homo sapiens, UniProt P0C1S8); experiment: Wee1B(WE1BLGF1) Takeda global kinase panel
[30] = molecular target: BMP-2-inducible protein kinase (Homo sapiens, UniProt Q9NSY1); experiment: BIKE(BM2KLGY1) Takeda global kinase panel
[31] = molecular target: Estrogen receptor (Homo sapiens) (UniProt P03372); conditions: Compound concentration 10.0 uM
[32] = molecular target: Alpha-1D adrenergic receptor (Homo sapiens) (UniProt P25100); conditions: Compound concentration 10.0 uM
[33] = molecular target: Serine/threonine-protein kinase 3 (Homo sapiens, UniProt Q13188); experiment: MST2(STK3LGF1) Takeda global kinase panel
[34] = molecular target: Serine/threonine-protein kinase Nek3 (Homo sapiens, UniProt P51956); experiment: Nek3(NEK3LGRI) Takeda global kinase panel
[35] = molecular target: Mitogen-activated protein kinase kinase kinase 14 (Homo sapiens, UniProt Q99558); experiment: NIK(M314LGP1) Takeda global kinase panel
Angiopoietin-1 receptor = Angiopoietin-1 receptor (Homo sapiens, UniProt Q02763); experiment: TIE2(TEK1LGF1) Takeda global kinase panel

Mitogen-activated protein kinase kinase kinase 7, sequence (O43318 whole entry): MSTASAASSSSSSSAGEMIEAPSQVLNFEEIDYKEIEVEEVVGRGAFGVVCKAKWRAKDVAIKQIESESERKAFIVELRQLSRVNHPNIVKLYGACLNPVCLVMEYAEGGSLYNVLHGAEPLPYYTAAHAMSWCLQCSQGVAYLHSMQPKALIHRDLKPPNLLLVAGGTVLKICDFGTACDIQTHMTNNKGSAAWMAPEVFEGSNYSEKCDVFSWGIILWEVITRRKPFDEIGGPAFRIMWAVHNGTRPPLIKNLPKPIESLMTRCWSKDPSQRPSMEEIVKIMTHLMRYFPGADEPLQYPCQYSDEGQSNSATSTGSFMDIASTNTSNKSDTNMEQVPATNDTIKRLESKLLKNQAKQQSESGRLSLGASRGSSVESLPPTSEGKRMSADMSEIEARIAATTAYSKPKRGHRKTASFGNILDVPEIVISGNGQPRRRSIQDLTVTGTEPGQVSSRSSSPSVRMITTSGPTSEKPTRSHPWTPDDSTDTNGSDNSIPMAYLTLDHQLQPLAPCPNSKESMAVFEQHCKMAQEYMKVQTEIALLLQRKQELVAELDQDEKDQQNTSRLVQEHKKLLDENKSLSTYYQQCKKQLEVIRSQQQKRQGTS
Serine/threonine-protein kinase Nek3, sequence (P51956 whole entry): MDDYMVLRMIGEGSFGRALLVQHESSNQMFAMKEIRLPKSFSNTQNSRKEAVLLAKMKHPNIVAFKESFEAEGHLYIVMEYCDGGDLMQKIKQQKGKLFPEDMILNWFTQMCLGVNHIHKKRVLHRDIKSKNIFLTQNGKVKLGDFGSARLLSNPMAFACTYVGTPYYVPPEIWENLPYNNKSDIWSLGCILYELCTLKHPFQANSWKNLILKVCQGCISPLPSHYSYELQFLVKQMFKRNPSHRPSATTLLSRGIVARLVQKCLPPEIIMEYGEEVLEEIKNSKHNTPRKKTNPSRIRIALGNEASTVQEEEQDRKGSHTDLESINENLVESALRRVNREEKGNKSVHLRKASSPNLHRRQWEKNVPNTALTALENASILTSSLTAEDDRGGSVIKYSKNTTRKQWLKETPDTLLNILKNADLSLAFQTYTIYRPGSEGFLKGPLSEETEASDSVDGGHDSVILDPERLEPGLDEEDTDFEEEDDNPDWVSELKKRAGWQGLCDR
Mitogen-activated protein kinase kinase kinase 20, sequence (Q9NYL2 whole entry): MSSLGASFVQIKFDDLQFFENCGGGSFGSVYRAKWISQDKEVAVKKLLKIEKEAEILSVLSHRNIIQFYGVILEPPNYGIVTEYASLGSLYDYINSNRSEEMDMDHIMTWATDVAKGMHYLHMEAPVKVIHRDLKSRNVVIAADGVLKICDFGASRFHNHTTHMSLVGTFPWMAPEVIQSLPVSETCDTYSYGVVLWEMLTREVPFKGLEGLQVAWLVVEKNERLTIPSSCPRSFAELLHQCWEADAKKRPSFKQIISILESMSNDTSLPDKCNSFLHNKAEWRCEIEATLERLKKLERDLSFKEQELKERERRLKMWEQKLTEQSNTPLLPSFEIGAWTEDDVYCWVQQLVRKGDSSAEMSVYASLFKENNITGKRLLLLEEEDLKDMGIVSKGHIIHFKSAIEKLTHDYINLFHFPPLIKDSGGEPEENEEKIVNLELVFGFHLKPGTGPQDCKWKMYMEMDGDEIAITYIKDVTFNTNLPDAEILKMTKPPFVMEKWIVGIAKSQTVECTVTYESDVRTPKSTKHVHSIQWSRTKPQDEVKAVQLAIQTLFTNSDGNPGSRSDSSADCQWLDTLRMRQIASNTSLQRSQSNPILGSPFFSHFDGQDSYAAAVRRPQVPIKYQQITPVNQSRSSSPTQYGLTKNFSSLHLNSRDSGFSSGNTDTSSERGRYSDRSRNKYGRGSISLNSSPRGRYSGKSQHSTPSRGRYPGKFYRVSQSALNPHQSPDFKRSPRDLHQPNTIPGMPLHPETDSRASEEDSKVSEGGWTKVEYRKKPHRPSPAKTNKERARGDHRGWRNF
Ephrin type-B receptor 2, sequence (P29323 whole entry): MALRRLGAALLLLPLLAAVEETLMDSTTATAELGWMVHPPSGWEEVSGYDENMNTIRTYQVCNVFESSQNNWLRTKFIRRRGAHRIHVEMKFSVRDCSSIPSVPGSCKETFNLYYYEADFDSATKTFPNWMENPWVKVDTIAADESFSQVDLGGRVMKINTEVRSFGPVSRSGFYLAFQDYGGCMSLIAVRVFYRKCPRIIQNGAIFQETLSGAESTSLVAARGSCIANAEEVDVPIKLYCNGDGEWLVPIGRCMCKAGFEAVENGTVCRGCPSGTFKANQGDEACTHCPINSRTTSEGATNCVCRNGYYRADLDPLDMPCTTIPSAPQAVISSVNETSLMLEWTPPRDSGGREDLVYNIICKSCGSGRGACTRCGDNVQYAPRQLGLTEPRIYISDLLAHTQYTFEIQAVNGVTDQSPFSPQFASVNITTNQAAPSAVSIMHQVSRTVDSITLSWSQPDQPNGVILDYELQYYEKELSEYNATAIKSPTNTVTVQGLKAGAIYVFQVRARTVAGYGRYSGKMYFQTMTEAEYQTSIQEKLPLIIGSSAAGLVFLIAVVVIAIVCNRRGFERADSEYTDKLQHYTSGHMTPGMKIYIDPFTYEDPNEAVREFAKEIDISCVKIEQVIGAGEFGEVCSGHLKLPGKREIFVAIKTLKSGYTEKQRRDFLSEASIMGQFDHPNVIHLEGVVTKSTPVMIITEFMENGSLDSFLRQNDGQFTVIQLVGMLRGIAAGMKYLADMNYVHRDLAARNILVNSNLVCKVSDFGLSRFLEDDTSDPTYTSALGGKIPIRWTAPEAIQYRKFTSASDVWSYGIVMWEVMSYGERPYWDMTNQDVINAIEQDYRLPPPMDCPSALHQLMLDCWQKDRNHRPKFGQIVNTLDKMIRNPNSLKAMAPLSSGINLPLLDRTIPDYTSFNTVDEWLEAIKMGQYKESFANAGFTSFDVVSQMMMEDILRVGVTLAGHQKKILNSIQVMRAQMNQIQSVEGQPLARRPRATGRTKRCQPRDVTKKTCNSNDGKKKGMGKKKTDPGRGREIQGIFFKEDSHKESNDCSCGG
Mitogen-activated protein kinase kinase kinase 14, sequence (Q99558 whole entry): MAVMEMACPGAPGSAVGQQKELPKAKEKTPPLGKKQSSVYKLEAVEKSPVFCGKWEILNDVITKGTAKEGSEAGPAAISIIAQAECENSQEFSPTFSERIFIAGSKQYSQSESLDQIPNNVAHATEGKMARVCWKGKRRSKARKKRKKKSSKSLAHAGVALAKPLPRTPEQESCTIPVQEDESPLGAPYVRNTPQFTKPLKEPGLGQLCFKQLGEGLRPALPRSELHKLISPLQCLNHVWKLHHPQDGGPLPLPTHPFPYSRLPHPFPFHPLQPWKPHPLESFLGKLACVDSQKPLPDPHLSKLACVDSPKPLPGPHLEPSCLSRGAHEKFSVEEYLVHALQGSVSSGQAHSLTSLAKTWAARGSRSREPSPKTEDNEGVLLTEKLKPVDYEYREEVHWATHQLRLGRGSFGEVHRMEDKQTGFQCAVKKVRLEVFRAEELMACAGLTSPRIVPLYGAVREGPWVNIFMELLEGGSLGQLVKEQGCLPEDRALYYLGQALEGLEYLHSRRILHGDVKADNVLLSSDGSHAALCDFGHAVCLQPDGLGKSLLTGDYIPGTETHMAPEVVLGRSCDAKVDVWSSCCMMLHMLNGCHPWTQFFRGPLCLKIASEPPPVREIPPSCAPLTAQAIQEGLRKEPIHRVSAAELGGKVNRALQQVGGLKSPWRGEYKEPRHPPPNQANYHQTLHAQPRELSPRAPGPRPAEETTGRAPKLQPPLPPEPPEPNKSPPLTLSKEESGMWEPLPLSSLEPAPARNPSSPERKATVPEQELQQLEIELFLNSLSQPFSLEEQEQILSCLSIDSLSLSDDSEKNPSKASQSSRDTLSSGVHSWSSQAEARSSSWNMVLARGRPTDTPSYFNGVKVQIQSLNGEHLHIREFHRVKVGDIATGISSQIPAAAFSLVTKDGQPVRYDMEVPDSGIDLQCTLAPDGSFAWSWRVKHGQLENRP
Tyrosine-protein kinase ABL1, sequence (P00519 whole entry): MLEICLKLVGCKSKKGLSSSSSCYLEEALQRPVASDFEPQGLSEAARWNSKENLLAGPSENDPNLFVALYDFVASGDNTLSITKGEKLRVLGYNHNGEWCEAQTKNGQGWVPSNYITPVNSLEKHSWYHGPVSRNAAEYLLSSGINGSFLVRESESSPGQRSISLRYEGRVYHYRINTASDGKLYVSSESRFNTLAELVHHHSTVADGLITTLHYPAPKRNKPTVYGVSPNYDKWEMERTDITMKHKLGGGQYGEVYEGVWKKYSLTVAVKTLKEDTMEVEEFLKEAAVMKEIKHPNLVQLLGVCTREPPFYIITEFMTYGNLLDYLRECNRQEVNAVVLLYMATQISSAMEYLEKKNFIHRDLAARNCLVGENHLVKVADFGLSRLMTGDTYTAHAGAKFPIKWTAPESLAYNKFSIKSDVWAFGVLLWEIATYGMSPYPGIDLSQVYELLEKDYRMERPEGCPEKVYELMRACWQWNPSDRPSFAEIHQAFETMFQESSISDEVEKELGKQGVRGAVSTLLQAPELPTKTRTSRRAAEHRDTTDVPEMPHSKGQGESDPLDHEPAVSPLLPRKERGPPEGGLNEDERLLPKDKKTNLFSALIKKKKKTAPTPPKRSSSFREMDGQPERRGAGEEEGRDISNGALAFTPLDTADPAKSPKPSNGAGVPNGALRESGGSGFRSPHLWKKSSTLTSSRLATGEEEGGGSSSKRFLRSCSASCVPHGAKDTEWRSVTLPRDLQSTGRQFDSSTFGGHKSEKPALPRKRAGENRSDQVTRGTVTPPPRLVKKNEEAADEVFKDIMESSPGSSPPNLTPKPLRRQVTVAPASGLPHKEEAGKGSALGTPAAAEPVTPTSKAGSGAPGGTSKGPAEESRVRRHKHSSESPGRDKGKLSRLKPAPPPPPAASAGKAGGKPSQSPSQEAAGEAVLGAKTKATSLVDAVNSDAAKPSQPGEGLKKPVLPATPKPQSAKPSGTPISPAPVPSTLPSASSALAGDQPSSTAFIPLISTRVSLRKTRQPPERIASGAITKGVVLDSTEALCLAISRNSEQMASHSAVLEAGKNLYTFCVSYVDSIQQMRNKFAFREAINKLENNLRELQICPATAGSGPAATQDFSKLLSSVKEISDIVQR

| SMILES | IC50 (Activin receptor type-1) [nM] | IC50 [1] [nM] | IC50 [2] [nM] | IC50 [3] [nM] | IC50 (Ephrin type-A receptor 3) [nM] | IC50 [4] [nM] | IC50 [5] [nM] | IC50 [6] [nM] | IC50 [7] [nM] | inhibition [8] [%] | IC50 [9] [nM] | IC50 [10] [nM] | IC50 [11] [nM] | inhibition [12] [%] | IC50 [14] [nM] | IC50 [15] [nM] | IC50 [16] [nM] | IC50 [17] [nM] | IC50 [18] [nM] | IC50 [19] [nM] | also measured |
| --- | --- | --- | --- | --- | --- | --- | --- | --- | --- | --- | --- | --- | --- | --- | --- | --- | --- | --- | --- | --- | --- |
| CN1C(=O)[C@@H](N2CCc3cn(Cc4ccccc4)nc3C2=O)COc2ccccc21 [TP-030-1] | 1000 | 1000 | 1000 | 1000 | 1000 | 1000 | 1000 | 1000 | 1000 | 0 | 1000 | 1000 | 1000 | -2 | 1000 | 1000 | 1000 | 1000 | 1000 | 1000 | inhibition [13]: -5.46%; IC50 [20]: 1000 nM; inhibition (Rattus norvegicus): -8%; IC50 [21]: 1000 nM; IC50 [22]: 1000 nM; inhibition [23]: 2%; IC50 [24]: 1000 nM; inhibition [25]: 11.9%; IC50 [26]: 1000 nM; IC50 [27]: 1000 nM; IC50 (Ephrin type-B receptor 2): 1000 nM; IC50 [28]: 1000 nM; IC50 [29]: 1000 nM; IC50 [30]: 1000 nM; inhibition [31]: 36%; inhibition [32]: -0.3%; IC50 [33]: 1000 nM; IC50 [34]: 1000 nM; IC50 [35]: 1000 nM |
| CN1C(=O)[C@@H](N2CCc3cn(CC4CCS(=O)(=O)CC4)nc3C2=O)COc2ccccc21 [TP-030n] | 1000 | 1000 | 1000 | 1000 | 1000 | 1000 | 1000 | 1000 | 1000 | 2 | 1000 | 1000 | 1000 | 7 | 1000 | 1000 | 1000 | 1000 | 1000 | 1000 | IC50 (Angiopoietin-1 receptor): 1000 nM; IC50 [20]: 1000 nM; inhibition (Rattus norvegicus): -9%; IC50 [21]: 1000 nM; IC50 [22]: 1000 nM; IC50 [24]: 1000 nM; IC50 [26]: 1000 nM; IC50 [27]: 1000 nM; IC50 (Ephrin type-B receptor 2): 1000 nM; IC50 [28]: 1000 nM; IC50 [29]: 1000 nM; IC50 [30]: 1000 nM; inhibition [31]: 5%; IC50 [33]: 1000 nM; IC50 [34]: 1000 nM; IC50 [35]: 1000 nM |
